This passage reports IC50 results from patent US20260042764A1, “COMPOSITIONS AND METHODS FOR INHIBITION OF KRAS” (TheRas, Inc., priority 2022, published 2026).

Each structure is given as a SMILES string. A value given as a limit tells only on which side of the number the result lay.

For assay [1], the target named is T1, Avi-KRAS G12R (1-169) GppNHp/RAF1 RBD-3xFLAG (52-151) (Homo sapiens, UniProt P01116, G12R).
T1 construct: Avi-KRAS G12R (1-169)
The assay can be described thus: Raf1-KRAS G12R-GppNHP disruption HTRF assay (Biological Example 1). Conditions: KRAS G12R, GppNHp-loaded; class symbols. It counts as binding. The method in brief: (§1)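 First, protein mix in Tris pH 7.5 buffer with NaCl, MgCl2, BSA, Tween and 10% DMSO is incubated 1 h at room temperature. Next, reagent mix is added and incubated a further 1 h at room temperature. Finally, HTRF is read and activity normalized to DMSO.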
In general terms: TR-FRET usually uses a lanthanide donor and a delayed reading to cut background.

Assay [2] has as its target T2, Avi-KRAS G12V (1-169) GppNHp/RAF1 RBD-3xFLAG (52-151) (Homo sapiens, UniProt P01116, G12V).
T2 construct: Avi-KRAS G12V (1-169)
The assay can be described thus: Raf1-KRAS G12V-GppNHP disruption HTRF assay (Biological Example 1). Format: binding. Conditions: KRAS G12V, GppNHp-loaded; class symbols. The essentials: as §1

A further assay deals with SW620 cells (KRAS G12V). The assay can be described thus: Cell-based pERK HTRF assay in SW620 cell (Biological Example 4). Conditions: Homo sapiens, SW-620, SW620 (KRAS G12V) cells, pERK HTRF; class symbols. The method in brief:
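This assay measures inhibition of ERK phosphorylation downstream of KRAS G12V in intact SW620 cells. Compounds are applied for 4 h over nine half-log concentrations starting at 1 μM, and pERK is quantified by HTRF.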

Assay [3] has as its target T3, Avi-KRAS WT (1-169) GppNHp/RAF1 RBD-3xFLAG (52-151) (Homo sapiens, UniProt P01116).
T3 construct: Avi-KRAS WT (1-169)
The assay can be described thus: Raf1-KRAS WT-GppNHP disruption HTRF assay (Biological Example 1). It counts as binding. Conditions: KRAS WT, GppNHp-loaded; class symbols. The essentials:
as §1

For the next assay, the system named is GP2d cells (KRAS G12D). The experiment in a line: Cell-based pERK HTRF assay in GP2d cell (Biological Example 2). Conditions: GP2d, GP2d (KRAS G12D) cells, pERK HTRF; class symbols. The essentials:
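60 min compound, 0.25% DMSO, 9-pt half-log curve from 1 μM or 100 nM; DMEM/10% FBS.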

Assay [4] concerns the target T4, Avi-KRAS G12D (1-169) GppNHp/RAF1 RBD-3xFLAG (52-151) (Homo sapiens, UniProt P01116, G12D).
T4 construct: Avi-KRAS G12D (1-169)
The assay can be described thus: Raf1-KRAS G12D-GppNHP disruption HTRF assay (Biological Example 1). It counts as binding. Conditions: KRAS G12D, GppNHp-loaded; class symbols. The essentials: as §1

T4 sequence (P01116 1-169 isoform P01116-2 G12D): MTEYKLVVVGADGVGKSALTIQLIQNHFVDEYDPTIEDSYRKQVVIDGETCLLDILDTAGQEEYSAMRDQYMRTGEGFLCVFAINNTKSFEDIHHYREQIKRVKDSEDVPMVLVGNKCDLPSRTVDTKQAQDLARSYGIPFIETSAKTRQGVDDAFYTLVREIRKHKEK
T1 sequence (P01116 1-169 isoform P01116-2 G12R): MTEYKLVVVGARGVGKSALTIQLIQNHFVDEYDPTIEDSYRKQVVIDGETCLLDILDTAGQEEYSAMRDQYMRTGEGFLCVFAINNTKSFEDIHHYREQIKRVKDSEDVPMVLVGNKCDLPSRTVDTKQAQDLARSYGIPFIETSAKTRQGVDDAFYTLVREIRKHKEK
T3 sequence (P01116 1-169 isoform P01116-2): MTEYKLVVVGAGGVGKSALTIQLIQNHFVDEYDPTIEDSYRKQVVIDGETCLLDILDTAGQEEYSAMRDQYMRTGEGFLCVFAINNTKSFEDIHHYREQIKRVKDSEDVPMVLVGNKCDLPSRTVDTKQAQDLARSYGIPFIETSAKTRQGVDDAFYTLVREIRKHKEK
T2 sequence (P01116 1-169 isoform P01116-2 G12V): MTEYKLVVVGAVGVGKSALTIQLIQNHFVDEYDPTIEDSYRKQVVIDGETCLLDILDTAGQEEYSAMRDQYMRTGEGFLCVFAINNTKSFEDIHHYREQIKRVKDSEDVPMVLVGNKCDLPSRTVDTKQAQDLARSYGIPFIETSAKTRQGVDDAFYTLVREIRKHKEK

Consider `CCN(c1nc(OC[C@@]23CCCN2C[C@H](F)C3)nc2c(F)c(-c3ccc(F)c4sc(N)c(C#N)c34)c(C(F)(F)F)cc12)[C@H]1CCN(C(=O)N2C[C@@H]3C[C@H]2CO3)C1` (atropisomer, axis not shown) [Compound 654], for which the half-maximal inhibitory concentration (IC50) (in assay [1]; in assay [2]; in the assay with SW620 cells (KRAS G12V); in assay [3]; in the assay on GP2d cells (KRAS G12D); in assay [4]) was less than 0.1 µM each time.

For the molecule `[2H]C([2H])([2H])OC(=O)N1CC[C@H](N(CC)c2nc(OC[C@@]34CCCN3C[C@H](F)C4)nc3c(F)c(-c4ccc(F)c5sc(N)c(C#N)c45)c(C(F)(F)F)cc23)C1` (atropisomer, axis not shown) [Compound 659], the concentration for half-maximal inhibition (IC50) (in assay [1]; in assay [2]; in the assay on SW620 cells (KRAS G12V); in assay [3]; in the assay on GP2d cells (KRAS G12D); in assay [4]) was less than 0.1 µM each time.

In the case of `CCN(c1nc(OC[C@@]23CCCN2C[C@H](F)C3)nc2c(F)c(-c3ccc(F)c4sc(N)c(C#N)c34)c(C(F)(F)F)cc12)[C@H]1C[C@H]2CCOC(=O)N2C1` (atropisomer, axis not shown) [Compound 664], the IC50 (in assay [1]; in assay [2]; in the assay on SW620 cells (KRAS G12V); in assay [3]; in the assay with GP2d cells (KRAS G12D); in assay [4]) was less than 0.1 µM each time.

As to `CCN(c1nc(OC[C@@]23CCCN2C[C@H](F)C3)nc2c(F)c(-c3ccc(F)c4sc(N)c(C#N)c34)c(C(F)(F)F)cc12)[C@H]1C[C@@H]2CCOC(=O)N2C1` (atropisomer, axis not shown) [Compound 665], the IC50 is 0.1 to 1 µM in assay [1]; 0.1 to 1 µM in assay [2]; less than 0.1 µM with SW620 cells (KRAS G12V); 0.1 to 1 µM in assay [3]; less than 0.1 µM with GP2d cells (KRAS G12D); 0.1 to 1 µM in assay [4].

In the case of `CCN(c1nc(OC[C@@]23CCCN2C[C@H](F)C3)nc2c(F)c(-c3ccc(F)c4sc(N)c(C#N)c34)c(C(F)(F)F)cc12)[C@H]1C[C@H]2CCN(C)C(=O)N2C1` (atropisomer, axis not shown) [Compound 666], the IC50 (in assay [1]; in assay [2]; with SW620 cells (KRAS G12V); in assay [3]; in the assay on GP2d cells (KRAS G12D); in assay [4]) was less than 0.1 µM in each case.

As to `CCN(c1nc(OC[C@@]23CCCN2C[C@H](F)C3)nc2c(F)c(-c3ccc(F)c4sc(N)c(C#N)c34)c(C(F)(F)F)cc12)[C@H]1CCN(C(=O)C=C(C)C)C1` (atropisomer, axis not shown) [Compound 675], the IC50 (in assay [1]; in assay [2]; in the assay with SW620 cells (KRAS G12V); in assay [3]; with GP2d cells (KRAS G12D); in assay [4]) was less than 0.1 µM in each case.

Take `C=C(F)C(=O)N1CC[C@H](N(CC)c2nc(OC[C@@]34CCCN3C[C@H](F)C4)nc3c(F)c(-c4ccc(F)c5sc(N)c(C#N)c45)c(C(F)(F)F)cc23)C1` (atropisomer, axis not shown) [Compound 676]: the IC50 (in assay [1]; in assay [2]; in the assay with SW620 cells (KRAS G12V); in assay [3]; with GP2d cells (KRAS G12D); in assay [4]) was less than 0.1 µM throughout.

`C/C=C\C(=O)N1CC[C@H](N(CC)c2nc(OC[C@@]34CCCN3C[C@H](F)C4)nc3c(F)c(-c4ccc(F)c5sc(N)c(C#N)c45)c(C(F)(F)F)cc23)C1` (atropisomer, axis not shown) [Compound 677]: the IC50 (in assay [1]; in assay [2]; in the assay on SW620 cells (KRAS G12V); in assay [3]; in the assay with GP2d cells (KRAS G12D); in assay [4]) was less than 0.1 µM each time.

As to `CC#CC(=O)N1CC[C@H](N(CC)c2nc(OC[C@@]34CCCN3C[C@H](F)C4)nc3c(F)c(-c4ccc(F)c5sc(N)c(C#N)c45)c(C(F)(F)F)cc23)C1` (atropisomer, axis not shown) [Compound 679], the IC50 (in assay [1]; in assay [2]; with SW620 cells (KRAS G12V); in assay [3]; in the assay with GP2d cells (KRAS G12D); in assay [4]) was less than 0.1 µM throughout.

As to `CCN(c1nc(OC[C@@]23CCCN2C[C@H](F)C3)nc2c(F)c(-c3ccc(F)c4sc(N)c(C#N)c34)c(C(F)(F)F)cc12)[C@H]1CCN(C(=O)O[C@H]2CCOC2)C1` (atropisomer, axis not shown) [Compound 682], the IC50 (in assay [1]; in assay [2]; in the assay with SW620 cells (KRAS G12V); in assay [3]; in the assay with GP2d cells (KRAS G12D); in assay [4]) was less than 0.1 µM each time.

Regarding `CCN(c1nc(OC[C@@]23CCCN2C[C@H](F)C3)nc2c(F)c(-c3ccc(F)c4sc(N)c(C#N)c34)c(C(F)(F)F)cc12)[C@H]1CCN(C(=O)OC2CCOCC2)C1` (atropisomer, axis not shown) [Compound 684], the IC50 (in assay [1]; in assay [2]; in the assay on SW620 cells (KRAS G12V); in assay [3]; in the assay with GP2d cells (KRAS G12D); in assay [4]) was less than 0.1 µM in each case.

As to `CCOC(=O)N1CC[C@H](N(CC)c2nc(OC[C@@]34CCCN3C[C@H](F)C4)nc3c(F)c(-c4ccc(F)c5sc(N)c(C#N)c45)c(C(F)(F)F)cc23)C1` (atropisomer, axis not shown) [Compound 686], the IC50 in assay [1] is less than 0.1 µM; in assay [2], less than 0.1 µM; in the assay with SW620 cells (KRAS G12V) it was less than 0.1 µM; in assay [3], 0.1 to 1 µM; in the assay on GP2d cells (KRAS G12D) it was less than 0.1 µM; in assay [4] it was less than 0.1 µM.

On to `CCN(c1nc(OC[C@@]23CCCN2C[C@H](F)C3)nc2c(F)c(-c3ccc(F)c4sc(N)c(C#N)c34)c(C(F)(F)F)cc12)[C@H]1CCN(C(=O)OCCF)C1` (atropisomer, axis not shown) [Compound 687], for which the IC50 (in assay [1]; in assay [2]; with SW620 cells (KRAS G12V); in assay [3]; in the assay on GP2d cells (KRAS G12D); in assay [4]) was less than 0.1 µM throughout.

Consider `CCN(c1nc(OC[C@@]23CCCN2C[C@H](F)C3)nc2c(F)c(-c3ccc(F)c4sc(N)c(C#N)c34)c(C(F)(F)F)cc12)[C@H]1CCN(C(=O)OC)[C@@H]1C` (atropisomer, axis not shown) [Compound 688], for which the IC50 in assay [1] is less than 0.1 µM; in assay [2], 0.1 to 1 µM; in the assay on SW620 cells (KRAS G12V), less than 0.1 µM; in assay [3], 0.1 to 1 µM; with GP2d cells (KRAS G12D), less than 0.1 µM; in assay [4], less than 0.1 µM.

On to `CCN(c1nc(OC[C@@]23CCCN2C[C@H](F)C3)nc2c(F)c(-c3ccc(F)c4sc(N)c(C#N)c34)c(C(F)(F)F)cc12)[C@H]1CCN(C(=O)[C@@H]2C[C@H]2C)C1` (atropisomer, axis not shown) [Compound 690], for which the 50% inhibitory concentration (IC50) (in assay [1]; in assay [2]; with SW620 cells (KRAS G12V); in assay [3]; in the assay with GP2d cells (KRAS G12D); in assay [4]) was less than 0.1 µM throughout.

Consider `CCN(c1nc(OC[C@@]23CCCN2C[C@H](F)C3)nc2c(F)c(-c3ccc(F)c4sc(N)c(C#N)c34)c(C(F)(F)F)cc12)[C@H]1CCN(C(=O)[C@@H]2C[C@@H]2F)C1` (atropisomer, axis not shown) [Compound 691], for which the IC50 (in assay [1]; in assay [2]; with SW620 cells (KRAS G12V); in assay [3]; in the assay with GP2d cells (KRAS G12D); in assay [4]) was less than 0.1 µM each time.

On to `CCN(c1nc(OC[C@@]23CCCN2C[C@H](F)C3)nc2c(F)c(-c3ccc(F)c4sc(N)c(C#N)c34)c(C(F)(F)F)cc12)[C@H]1CCN(C(=O)[C@@H]2CC2(F)F)[C@@H]1C` (atropisomer, axis not shown) [Compound 693], for which the IC50 (in assay [1]; in assay [2]; with SW620 cells (KRAS G12V); in assay [3]; with GP2d cells (KRAS G12D); in assay [4]) was less than 0.1 µM each time.

Turning to `CCN1CC[C@H](N(CC)c2nc(OC[C@@]34CCCN3C[C@H](F)C4)nc3c(F)c(-c4ccc(F)c5sc(N)c(C#N)c45)c(C(F)(F)F)cc23)C1=O` (atropisomer, axis not shown) [Compound 694], the IC50 in assay [1] was 0.1 to 1 µM; in assay [2], 0.1 to 1 µM; in the assay on SW620 cells (KRAS G12V), less than 0.1 µM; in assay [3], 0.1 to 1 µM; in the assay on GP2d cells (KRAS G12D), less than 0.1 µM; in assay [4], less than 0.1 µM.

The IC50 is the concentration needed to halve the response being measured. Higher therefore signals lower potency.
